Measurements from article PMC3914206.

How the values were obtained:
Format in all cases: binding
panel of 442 kinases [1] = target: T1, panel of 442 kinases (Homo sapiens, UniProt Q9NY57); conditions: kinase YANK2; compound concentration 10 µM
T1 construct: purchased KINOMEscan
Text: (§1) We assessed the selectivity of members of this scaffold using the KINOMEscan methodology across a near comprehensive panel of 442 kinases [[18,27]].

panel of 442 kinases [2] = target: T2, panel of 442 kinases (Homo sapiens, UniProt Q9Y6E0); conditions: Compound Concentration 10 µM
T2 construct: purchased KINOMEscan
Text: as §1

panel of 442 kinases [3] = target: T3, panel of 442 kinases (Homo sapiens, UniProt Q13153); conditions: Compound Concentration 10 µM
T3 construct: purchased KINOMEscan
Text: as §1

T2 sequence (Q9Y6E0 whole entry): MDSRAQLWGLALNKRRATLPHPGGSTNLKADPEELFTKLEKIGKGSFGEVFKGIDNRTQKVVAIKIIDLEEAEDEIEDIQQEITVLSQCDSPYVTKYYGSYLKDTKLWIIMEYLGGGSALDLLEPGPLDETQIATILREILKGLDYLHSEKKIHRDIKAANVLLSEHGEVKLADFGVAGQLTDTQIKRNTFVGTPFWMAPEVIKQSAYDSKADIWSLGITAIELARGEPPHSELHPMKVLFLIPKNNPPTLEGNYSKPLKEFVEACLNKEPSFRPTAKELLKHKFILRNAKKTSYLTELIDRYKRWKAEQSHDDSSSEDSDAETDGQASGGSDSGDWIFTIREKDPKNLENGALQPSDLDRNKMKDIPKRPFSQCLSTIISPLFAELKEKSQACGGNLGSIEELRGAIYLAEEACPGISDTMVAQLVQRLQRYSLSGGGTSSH
T3 sequence (Q13153 whole entry): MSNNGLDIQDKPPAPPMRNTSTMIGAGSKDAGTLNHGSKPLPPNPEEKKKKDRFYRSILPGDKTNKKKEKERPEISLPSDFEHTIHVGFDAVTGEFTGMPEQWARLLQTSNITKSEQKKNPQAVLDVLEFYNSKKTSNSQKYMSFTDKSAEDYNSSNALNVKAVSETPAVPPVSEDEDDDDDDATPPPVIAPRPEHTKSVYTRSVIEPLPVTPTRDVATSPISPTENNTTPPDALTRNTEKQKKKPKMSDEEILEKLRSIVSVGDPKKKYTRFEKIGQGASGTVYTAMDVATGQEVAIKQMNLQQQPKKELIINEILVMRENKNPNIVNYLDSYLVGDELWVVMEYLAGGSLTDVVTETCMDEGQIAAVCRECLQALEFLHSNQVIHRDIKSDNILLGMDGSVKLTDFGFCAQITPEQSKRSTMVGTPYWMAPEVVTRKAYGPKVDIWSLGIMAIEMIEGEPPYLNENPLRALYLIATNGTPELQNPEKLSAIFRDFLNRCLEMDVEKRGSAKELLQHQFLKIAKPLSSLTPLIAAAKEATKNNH
T1 sequence (Q9NY57 whole entry): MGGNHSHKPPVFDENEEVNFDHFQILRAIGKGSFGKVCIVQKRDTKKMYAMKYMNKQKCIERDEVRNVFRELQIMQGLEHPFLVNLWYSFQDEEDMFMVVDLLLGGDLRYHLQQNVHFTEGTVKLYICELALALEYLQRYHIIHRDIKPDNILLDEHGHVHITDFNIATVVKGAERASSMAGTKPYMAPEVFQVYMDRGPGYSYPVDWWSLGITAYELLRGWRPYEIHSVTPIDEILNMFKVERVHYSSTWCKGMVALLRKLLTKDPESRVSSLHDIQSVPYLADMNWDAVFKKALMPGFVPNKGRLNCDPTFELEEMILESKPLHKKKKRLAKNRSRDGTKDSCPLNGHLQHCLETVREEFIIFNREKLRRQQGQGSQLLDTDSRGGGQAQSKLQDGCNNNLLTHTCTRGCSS

Structure (SMILES): COc1cc(C(=O)N2CCC(N3CCN(C)CC3)CC2)ccc1Nc1ncc2c(n1)N(C1CCCC1)c1ccccc1C(=O)N2C [Compound 25, 11-cyclopentyl-2-((2-methoxy-4-(4-(4-methylpiperazin-1-yl)piperidine-1-carbonyl)phenyl)amino)-5-methyl-5H-benzo[e]pyrimido[5,4-b][1,4]diazepin-6(11H)-one]
- % Ctrl, YANK2 (panel of 442 kinases [1]): 100 % Ctrl
- KINOMEscan: MST3 (panel of 442 kinases [2]): 88
- KINOMEscan: PAK1 (panel of 442 kinases [3]): 82

Structure (SMILES): CCOc1cc(C(=O)N2CCC(N3CCN(C)CC3)CC2)ccc1Nc1ncc2c(n1)N(C1CCCC1)c1ccccc1C(=O)N2C [Compound 26]
- % Ctrl, YANK2 (panel of 442 kinases [1]): 100 % Ctrl
- KINOMEscan: MST3 (panel of 442 kinases [2]): 100
- KINOMEscan: PAK1 (panel of 442 kinases [3]): 100

Structure (SMILES): COc1cc(C(=O)N2CCC(N3CCN(C)CC3)CC2)ccc1Nc1ncc2c(n1)N1CCc3cccc(c31)C(=O)N2C [Compound 24]
- % Ctrl, YANK2 (panel of 442 kinases [1]): 100 % Ctrl
- KINOMEscan: MST3 (panel of 442 kinases [2]): 73
- KINOMEscan: PAK1 (panel of 442 kinases [3]): 85

Structure (SMILES): COc1cc(C(=O)N2CCC(N3CCN(C)CC3)CC2)ccc1Nc1ncc2c(n1)N(C)c1ccccc1C(=O)N2C [15 (LRRK2-IN-1)]
- % Ctrl, YANK2 (panel of 442 kinases [1]): 100 % Ctrl
- KINOMEscan: MST3 (panel of 442 kinases [2]): 87
- KINOMEscan: PAK1 (panel of 442 kinases [3]): 95
